ChEMBL document CHEMBL1131477, “Synthesis and biological activity of a novel series of nonsteroidal, peripherally selective androgen receptor antagonists derived from 1,2-dihydropyridono[5,6-g]quinolines” (J Med Chem, 1998)

Tests used:
[1] = target: T1, Progesterone receptor (Homo sapiens) (UniProt P06401); assay: Efficacy as a function of maximal inhibition against human progesterone receptor B (hPR-B).
T1 sequence (whole entry): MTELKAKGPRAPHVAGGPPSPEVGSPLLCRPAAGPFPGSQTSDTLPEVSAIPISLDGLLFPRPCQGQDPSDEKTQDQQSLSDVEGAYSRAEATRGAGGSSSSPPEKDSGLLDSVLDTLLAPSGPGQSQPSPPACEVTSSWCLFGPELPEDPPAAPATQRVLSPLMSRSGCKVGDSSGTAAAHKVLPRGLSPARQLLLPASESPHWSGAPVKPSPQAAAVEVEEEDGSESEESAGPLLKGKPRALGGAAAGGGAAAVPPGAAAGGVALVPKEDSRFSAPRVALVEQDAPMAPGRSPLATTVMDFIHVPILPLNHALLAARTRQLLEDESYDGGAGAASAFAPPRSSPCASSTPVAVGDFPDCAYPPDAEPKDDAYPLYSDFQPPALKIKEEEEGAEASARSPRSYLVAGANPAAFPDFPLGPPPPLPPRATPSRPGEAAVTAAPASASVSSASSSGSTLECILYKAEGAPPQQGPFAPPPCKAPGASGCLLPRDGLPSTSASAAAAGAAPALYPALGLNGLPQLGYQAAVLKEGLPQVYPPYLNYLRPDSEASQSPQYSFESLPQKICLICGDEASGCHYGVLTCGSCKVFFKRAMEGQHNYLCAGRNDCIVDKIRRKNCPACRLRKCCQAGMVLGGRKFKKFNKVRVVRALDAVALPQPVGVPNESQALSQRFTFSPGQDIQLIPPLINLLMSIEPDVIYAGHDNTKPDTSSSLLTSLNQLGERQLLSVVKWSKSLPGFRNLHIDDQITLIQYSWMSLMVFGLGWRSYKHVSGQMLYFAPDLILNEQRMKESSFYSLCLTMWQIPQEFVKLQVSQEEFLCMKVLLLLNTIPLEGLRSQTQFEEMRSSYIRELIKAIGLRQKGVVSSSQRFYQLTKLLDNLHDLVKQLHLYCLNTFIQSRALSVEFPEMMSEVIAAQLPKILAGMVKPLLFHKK

[2] = target: T2, Progesterone receptor (Homo sapiens, UniProt P06401); assay: Antagonistic activity against human progesterone receptor B (hPR-B) in co-transfected CV-1 cells.; type: functional, cell-based
T2 sequence (P06401 whole entry): T1 sequence (whole entry)

[3] = target: T3, Androgen receptor (Homo sapiens, UniProt P10275)
T3 sequence (P10275 whole entry): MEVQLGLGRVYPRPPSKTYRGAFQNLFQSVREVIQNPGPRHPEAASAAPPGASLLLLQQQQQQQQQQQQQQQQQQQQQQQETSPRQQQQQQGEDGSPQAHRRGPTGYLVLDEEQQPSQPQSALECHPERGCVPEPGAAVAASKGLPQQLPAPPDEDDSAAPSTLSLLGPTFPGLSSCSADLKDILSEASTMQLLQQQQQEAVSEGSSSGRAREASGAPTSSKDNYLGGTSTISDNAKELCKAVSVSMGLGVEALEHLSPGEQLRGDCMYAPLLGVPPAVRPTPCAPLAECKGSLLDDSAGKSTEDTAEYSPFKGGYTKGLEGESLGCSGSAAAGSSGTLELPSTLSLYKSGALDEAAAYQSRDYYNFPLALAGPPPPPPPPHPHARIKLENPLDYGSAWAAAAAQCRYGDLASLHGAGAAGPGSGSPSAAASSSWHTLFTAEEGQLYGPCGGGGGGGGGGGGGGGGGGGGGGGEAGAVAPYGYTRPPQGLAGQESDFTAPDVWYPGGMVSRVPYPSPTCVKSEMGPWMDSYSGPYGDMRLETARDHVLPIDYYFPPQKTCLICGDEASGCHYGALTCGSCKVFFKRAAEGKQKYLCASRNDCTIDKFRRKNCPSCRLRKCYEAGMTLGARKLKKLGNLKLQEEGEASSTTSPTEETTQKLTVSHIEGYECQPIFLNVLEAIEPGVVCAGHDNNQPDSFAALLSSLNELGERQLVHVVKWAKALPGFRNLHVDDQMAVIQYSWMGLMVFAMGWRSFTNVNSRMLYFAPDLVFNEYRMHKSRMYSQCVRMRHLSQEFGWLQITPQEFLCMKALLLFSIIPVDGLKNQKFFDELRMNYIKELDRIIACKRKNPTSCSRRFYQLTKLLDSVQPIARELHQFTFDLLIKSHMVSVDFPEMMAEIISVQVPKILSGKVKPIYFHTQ
Description: Antagonistic activity against human androgen receptor (hAR) in co-transfected CV-1 cells.

[4] = target: T3, Androgen receptor; assay: biochemical
Description: Binding affinity for human androgen receptor in transiently-transfected COS-1 cells.

Row | SMILES | Efficacy [1] | IC50 [2] | IC50 [3] | Ki [4]
1 | CCC1(C)CCc2cc3c(C(F)(F)F)cc(=O)n(C)c3cc2N1C (stereo unspecified) | 92% | 1100 nM | 24 nM | 10 nM
2 | CC(C)C1CC(C)(C)Nc2cc3nc(O)cc(C(F)(F)F)c3cc21 (stereo unspecified) | 59% | 3160 nM | 159 nM | 650 nM
3 | CC1=CC(C)(C)N(C)c2cc3nc(O)cc(C(F)(F)F)c3cc21 | 55% | 1680 nM | 156 nM | 695 nM
4 | CC1Cc2cc3c(C(F)(F)F)cc(=O)[nH]c3cc2NC1(C)C (stereo unspecified) | – | 348 nM | 30 nM | 73 nM
5 | C[C@H]1c2cc3c(C(F)(F)F)cc(O)nc3cc2NC(C)(C)[C@H]1C | 95% | 310 nM | – | –
6 | CCC1CC(C)(C)Nc2cc3nc(O)cc(C(F)(F)F)c3cc21 (stereo unspecified) | 74% | 274 nM | 27 nM | 54 nM
7 | Cn1c(=O)cc(C(F)(F)F)c2cc3c(cc21)N1CCCC1(C)CC3 (stereo unspecified) | 84% | 398 nM | – | –
8 | CC1(C)Cc2cc3c(C(F)(F)F)cc(O)nc3cc2NC1(C)C | 98% | – | – | –
9 | CCCC1(C)CCc2cc3c(C(F)(F)F)cc(=O)[nH]c3cc2N1 (stereo unspecified) | – | 1140 nM | 42 nM | 69 nM
10 | Oc1cc(C(F)(F)F)c2cc3c(cc2n1)NC1(CCCCC1)CC3 | 94% | 1830 nM | 35 nM | 9 nM
11 | CC1(C)CCc2cc3c(C(F)(F)F)cc(=O)[nH]c3cc2N1 | – | 330 nM | – | –
12 | CC1c2cc3c(C(F)(F)F)cc(O)nc3cc2NC(C)(C)C1(C)C (stereo unspecified) | 93% | 362 nM | 57 nM | 358 nM
13 | CCCC1(C)CCc2cc3c(C(F)(F)F)cc(O)nc3cc2N1 (stereo unspecified) | 86% | – | – | –
14 | CC1=CC(C)(C)Nc2cc3[nH]c(=O)cc(C)c3cc21 | – | 109 nM | 36 nM | 62 nM
15 | CCC1Cc2cc3c(C(F)(F)F)cc(=O)[nH]c3cc2NC1(C)C (stereo unspecified) | – | 2330 nM | 46 nM | 251 nM
16 | CCC1Cc2cc3c(C(F)(F)F)cc(O)nc3cc2NC1(C)C (stereo unspecified) | 82% | – | – | –
17 | CCn1c(=O)cc(C(F)(F)F)c2cc3c(cc21)NC(C)(C)C=C3C | 55% | 1760 nM | 692 nM | 670 nM
18 | CC1(C)Cc2cc3c(C(F)(F)F)cc(=O)[nH]c3cc2NC1(C)C | – | 876 nM | 83 nM | 189 nM
19 | CC1=CC(C)(C)Nc2c1cc1c(C(F)(F)F)cc(=O)n(C)c1c2C | 68% | 4400 nM | – | 874 nM
20 | CC1(C)CCc2cc3c(C(F)(F)F)cc(O)nc3cc2N1 | 80% | – | – | –
21 | Cn1c(=O)cc(C(F)(F)F)c2cc3c(cc21)NC(C)(C)CC3 | 74% | 1240 nM | 36 nM | 56 nM
22 | CN1c2cc3c(cc2CCC1(C)C)c(C(F)(F)F)cc(=O)n3C | 85% | 2200 nM | 19 nM | 17 nM
23 | CC1=C(C)C(C)(C)Nc2cc3[nH]c(=O)cc(C(F)(F)F)c3cc21 | – | 393 nM | 68 nM | 268 nM

Row | SMILES | Efficacy [1] | IC50 [2] | IC50 [3] | Ki [4]
24 | Cc1c2c(cc3c(C(F)(F)F)cc(=O)n(C)c13)C(C)CC(C)(C)N2 (stereo unspecified) | 79% | 2930 nM | 31 nM | 40 nM
25 | CC1=C(C)C(C)(C)Nc2cc3nc(O)cc(C(F)(F)F)c3cc21 | 65% | – | – | –
26 | CCC1(C)CCc2cc3c(C(F)(F)F)cc(=O)n(C)c3cc2N1 (stereo unspecified) | 73% | 3280 nM | 48 nM | 69 nM
27 | C[C@@H]1c2cc3c(C(F)(F)F)cc(O)nc3cc2NC(C)(C)[C@H]1C | 92% | 735 nM | – | –
28 | CC1=CC(C)(C)Nc2cc3[nH]c(=O)cc(C(F)(F)F)c3cc21 | – | 49 nM | – | –
29 | Cc1c2c(cc3c(C(F)(F)F)cc(O)nc13)C(C)CC(C)(C)N2 (stereo unspecified) | 74% | – | – | –
30 | CC1(C)C=Cc2cc3c(C(F)(F)F)cc(O)nc3cc2N1 | 81% | 390 nM | 58 nM | 86 nM
31 | CCC1(CC)CCc2cc3c(C(F)(F)F)cc(O)nc3cc2N1 | 81% | 2710 nM | 27 nM | 102 nM
32 | CC(C)(O)C(=O)Nc1ccc([N+](=O)[O-])c(C(F)(F)F)c1 | 90% | – | – | –
33 | CC1Cc2cc3c(C(F)(F)F)cc(O)nc3cc2NC1(C)C (stereo unspecified) | 89% | – | – | –
34 | CCC1(C)CCc2cc3c(C(F)(F)F)cc(=O)[nH]c3cc2N1 (stereo unspecified) | – | 543 nM | – | –
35 | CC1=CC(C)(C)Nc2c1cc1c(C(F)(F)F)cc(O)nc1c2C | 88% | – | – | –
36 | CC(=O)O[C@]1(C(C)=O)CC[C@H]2[C@@H]3C=C(Cl)C4=CC(=O)[C@@H]5C[C@@H]5[C@]4(C)[C@H]3CC[C@@]21C | 12% | – | – | –
37 | CC12CCCN1c1cc3nc(O)cc(C(F)(F)F)c3cc1CC2 (stereo unspecified) | 11% | > 10000 nM | – | –
38 | CC1=CC(C)(C)N(C)c2cc3c(cc21)c(C(F)(F)F)cc(=O)n3C | 91% | 136 nM | 46 nM | 39 nM
39 | CC1CC(C)(C)Nc2cc3nc(O)cc(C(F)(F)F)c3cc21 (stereo unspecified) | 86% | 231 nM | – | –
40 | CC1=CC(C)(C)Nc2cc3nc(O)cc(C(F)(F)F)c3cc21 | 62% | – | – | –
41 | CC1=CC(C)(C)Nc2cc3nc(O)cc(C)c3cc21 | 83% | – | – | –
42 | CCC1(C)CCc2cc3c(C(F)(F)F)cc(O)nc3cc2N1 (stereo unspecified) | 91% | – | – | –
43 | CC1=CC(C)(C)Nc2cc3c(cc21)c(C(F)(F)F)cc(=O)n3C | 88% | 233 nM | 34 nM | 81 nM
44 | CC(O)(CS(=O)(=O)c1ccc(F)cc1)C(=O)Nc1ccc(C#N)c(C(F)(F)F)c1 (stereo unspecified) [BICALUTAMIDE] | 88% | 1820 nM | – | –
45 | CC1CC(C)(C)Nc2cc3c(cc21)c(C(F)(F)F)cc(=O)n3C (stereo unspecified) | 98% | 585 nM | 73 nM | 46 nM
46 | Cc1c2c(cc3c(C(F)(F)F)cc(=O)[nH]c13)C(C)CC(C)(C)N2 (stereo unspecified) | – | 3730 nM | 22 nM | 85 nM
